Source: the supplement of paper PMC12613149
Counter-ions that a name gives are not always drawn.

Legend:
[1] = reversed-phase LC retention time (C18, 15 min MeOH gradient); higher = more hydrophobic / later elution
[2] = collision cross section (TIMS, N2 drift gas) of the primary ion; higher = larger gas-phase ion size
[3] = ionization mode: ESI+, ion species: [M+H]+
[4] = ionization mode: ESI-, ion species: [M-H]-

Row | SMILES | reversed-phase LC retention time [1, 3] | collision cross section [2, 3] | reversed-phase LC retention time [1, 4] | collision cross section [2, 4]
1 | COP(=S)(OC)Oc1ccc(SC)c(C)c1 [Fenthion] | 14.1 min | 160.76 Å² | – | –
2 | Cc1cc(Cl)ccc1/N=C/N(C)C [Chlordimeform] | 8.19 min | 145.93 Å² | – | –
3 | CCCCCCCCCCN(C)C [N,N-Dimethyldecylamine] | 13.7 min | 158.65 Å² | – | –
4 | O=S(=O)(O)c1cccc2c(O)cccc12 [5-Hydroxy-1-naphthalenesulfonic acid] | – | – | 2.41 min | 143.15 Å²
5 | Cc1ccc(OS(=O)(=O)[O-])cc1 [p-Tolyl Sulfate] | – | – | 7.34 min | 135.45 Å²
6 | O=C(CCc1ccc(O)cc1)c1c(O)cc(O)cc1O [Phloretin] | 11.9 min | 163.11 Å² | 10.6 min | 163.45 Å²
7 | Cn1cnc2c1c(=O)[nH]c(=O)n2C [Theobromine] | 5.81 min | 130.33 Å² | – | –
8 | COc1c(C)c2c(c(O)c1C/C=C(\C)CCC(=O)O)C(=O)OC2 [Mycophenolic acid] | 13.4 min | 169.04 Å² | 11.3 min | 175.76 Å²
